Here are results for eight compounds from ChEMBL document CHEMBL1152046, “Pyrrolooctahydroisoquinolines as potent and selective opioid receptor ligands: SAR analysis and docking studies” (Bioorg Med Chem Lett, 1997).

SMILES strings stand for the structures. A value given as a limit tells only on which side of the number the result lay.

Test [1] addresses Delta-type opioid receptor (Mus musculus, UniProt P32300). Nature of the test: inhibition of [3H]DADLE binding to delta-opioid receptor of mouse brain homogenates.
Test [2] deals with Kappa-type opioid receptor (Mus musculus, UniProt P33534). Nature of the test: Binding affinity against Kappa opioid receptor using [3H]U-69593 radioligand in mouse brain homogenates. The test is classed as tissue-based.
In test [3] the target is Mu-type opioid receptor (Mus musculus, UniProt P42866). Nature of the test: Inhibition of [3H]DAMGO from mouse brain homogenate Mu opioid receptor.
Sequence of Mu-type opioid receptor (P42866 whole entry): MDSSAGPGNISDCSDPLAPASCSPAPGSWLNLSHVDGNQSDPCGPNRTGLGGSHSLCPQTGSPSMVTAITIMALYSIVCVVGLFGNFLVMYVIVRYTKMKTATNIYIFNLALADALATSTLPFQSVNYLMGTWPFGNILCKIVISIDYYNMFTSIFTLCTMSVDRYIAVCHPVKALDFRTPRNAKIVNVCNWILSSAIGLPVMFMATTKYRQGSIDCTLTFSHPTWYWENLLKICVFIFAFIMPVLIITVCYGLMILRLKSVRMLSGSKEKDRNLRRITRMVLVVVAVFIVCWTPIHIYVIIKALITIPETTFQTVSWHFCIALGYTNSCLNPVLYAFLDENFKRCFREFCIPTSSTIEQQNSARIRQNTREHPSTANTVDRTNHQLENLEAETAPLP

Sequence of Kappa-type opioid receptor (P33534 whole entry): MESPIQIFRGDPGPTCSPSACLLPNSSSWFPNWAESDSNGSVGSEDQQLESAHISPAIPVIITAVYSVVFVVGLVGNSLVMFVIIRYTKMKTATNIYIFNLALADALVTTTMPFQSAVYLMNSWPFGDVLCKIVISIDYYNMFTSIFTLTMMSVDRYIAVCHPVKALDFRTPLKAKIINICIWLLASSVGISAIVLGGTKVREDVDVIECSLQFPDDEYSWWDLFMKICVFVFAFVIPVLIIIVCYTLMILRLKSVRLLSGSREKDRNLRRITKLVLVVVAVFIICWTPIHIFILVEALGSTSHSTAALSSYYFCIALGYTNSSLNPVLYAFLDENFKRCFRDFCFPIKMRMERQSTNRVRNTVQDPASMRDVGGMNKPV
Sequence of Delta-type opioid receptor (P32300 whole entry): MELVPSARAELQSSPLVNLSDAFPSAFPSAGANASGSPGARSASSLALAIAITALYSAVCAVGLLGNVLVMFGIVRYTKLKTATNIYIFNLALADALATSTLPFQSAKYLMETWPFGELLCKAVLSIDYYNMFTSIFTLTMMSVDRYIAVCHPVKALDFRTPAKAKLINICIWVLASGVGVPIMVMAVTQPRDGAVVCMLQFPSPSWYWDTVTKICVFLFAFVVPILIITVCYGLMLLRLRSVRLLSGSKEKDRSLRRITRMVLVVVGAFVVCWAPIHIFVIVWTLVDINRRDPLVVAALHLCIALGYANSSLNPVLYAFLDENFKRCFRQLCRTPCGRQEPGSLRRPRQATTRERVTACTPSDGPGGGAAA

On to `CCN1CC[C@]2(c3cccc(O)c3)Cc3[nH]c(C(=O)N(CC)CC)c(C)c3C[C@H]2C1`, for which the Ki (usually the equilibrium dissociation constant of an inhibitor or competing ligand from its target) in test [1] turned out to be 0.95 nM.
Take `CCN1CC[C@]2(c3cccc(O)c3)Cc3[nH]c(C(=O)N(C(C)C)C(C)C)c(C)c3C[C@H]2C1`: the Ki is 2.6 nM in test [1], above 1000 nM in test [2] and 57.9 nM in test [3].
For `CCN1CC[C@]2(c3cccc(O)c3)Cc3c([nH]c(C(=S)N(CC)CC)c3C)C[C@H]2C1` the same measures were 1.5 nM, 449 nM and 42 nM.
For `CCN1CC[C@]2(c3cccc(O)c3)Cc3[nH]c(C(=O)N(C)C)c(C)c3C[C@H]2C1` the same measures were 6.8 nM, above 1000 nM and 580 nM.
For `CCN(CC)C(=O)c1[nH]c2c(c1C)C[C@@]1(c3cccc(O)c3)CCN(C)C[C@@H]1C2` the same measures were 3 nM, above 1000 nM and 89.4 nM.
On to `CCOC(=O)c1[nH]c2c(c1C)C[C@@]1(c3cccc(O)c3)CCN(CC)C[C@@H]1C2`, for which the Ki came to 2.4 nM in test [1], 169 nM in test [2] and 141 nM in test [3].
As for `CN1CC[C@]2(c3cccc(O)c3)Cc3nc4ccccc4cc3C[C@H]2C1`, the Ki in test [1] turned out to be 0.23 nM; in test [2], 312 nM; in test [3], 59.6 nM.
In the same order, the values of `CCN1CC[C@]2(c3cccc(O)c3)Cc3[nH]c(C(N)=O)c(C)c3C[C@H]2C1` are 15.1 nM, 70.4 nM and 139 nM.
